SMILES strings stand for the structures. Read-outs that look alike come from different tables or passages of the source. A value given as a limit tells only on which side of the number the result lay.

The results in this text go back to patent US20230107216A1, “PANTETHEINE DERIVATIVES AND USES THEREOF” (Comet Therapeutics, Inc., priority 2018, published 2023).

Assay [1] deals with Propionic Acidemia (PA) primary fibroblasts GM00371. Description: Mitochondrial respiration, XFe96 Extracellular Flux Analyzer (OCR/ECAR), PA fibroblasts GM00371. In kind it is cell-based. As to conditions: Homo sapiens, Fibroblast.
The subject of assay [2] is primary fibroblasts GM00649, GM06225, GM00612, GM00444, GM03672. Description: MMP, ROS and ATP multiplex (ArrayScan). In kind it is cell-based. As to conditions: Homo sapiens, Fibroblast; Leigh GM03672; procedure Example 838; 50 μM (table line r25); read-out: Decreased ROS by at least 10%. As to the method: Cell culture and treatments. Primary adherent fibroblasts were cultured in minimum essential medium (MEM) (Gibco, 25030081) supplemented with 2 mM L-Glutamine (Gibco, 25030081), 15% fetal bovine serum (FBS) (Gibco, 26400044) and 1% penicillin/streptomycin (Gibco, 5140122) at 37° C. and 5% CO2. Cells were collected for either passaging or experiment at ˜70-80% confluence. Cells were obtained by trypsinization and seeded at 10000 cells/well in cell culture microplates (Seahorse Bioscience, 101085-004) and allowed to adhere for 16 hours in culture media. After media was refreshed with DMEM (Agilent Seahorse 103575-100) supplemented with 1 mM glucose and 10% FBS (Gibco, 26400044). At the end of the incubation period, the cells were loaded with the relevant dye/antibody for each cell health marker. The assay provided simultaneous measurement of cell health parameters including cell count, ROS formation (DHE), mitochondrial membrane potential (MitoTracker®) and cellular ATP content (CellTiter-Glo®, Promega). The plates were then scanned using an automated fluorescent cellular imager, ArrayScan® (Thermo Scientific Cellomics). Assay conditions were optimized by one skilled in the art.
Primary cells used in this example were obtained from Coriell Institute for Medical Research and consisted of GM00649, MSUD (Maple Syrup Urine Disease) Tyle IA; GM06225, Kearns-Sayre Syndrome; GM00612, MSUD (Maple Syrup Urine Disease) Tyle II GM00444, Pyruvate Carboxylase Deficiency and GM03672, Leigh Syndrome.

Assay [3] has as its system Leigh Syndrome (LS) primary fibroblasts GM03672. Description: NADP+/NADPH (NADP/NADPH-Glo), Leigh fibroblasts GM03672. Type of assay: cell-based. Particulars: Homo sapiens, Fibroblast, Leigh GM03672 P8, assay condition B (1 mM glucose, 2 mM L-glutamine, 1 mM pyruvate, 10% FBS), 24h, read-out: Increase in Total NADP+ + NADPH. As for the experimental part:
Primary adherent fibroblasts were cultured in minimum essential medium (MEM) (Gibco, 25030081) supplemented with 2 mM L-Glutamine (Gibco, 25030081), 15% fetal bovine serum (FBS) (Gibco, 26400044) and 1% penicillin/streptomycin (Gibco, 5140122) at 37° C. and 5% CO2. Cells were collected for either passaging or experiment at ˜70-80% confluence. Cells were obtained by trypsinization and seeded in cell culture microplates either white plate (Thermo Fisher Scientific, 152028) for luminescent measurement or black plate (Thermo Fisher Scientific, 165305) for fluorescent based read out for different assays listed below. Cells were obtained by trypsinization and […] were seeded and allowed to adhere for 16-18 hours to have confluency around 70-80% in the cell well with culture media. After 24 hours prior to measurements (37° C., 5% CO2) media was changed to Dulbecco's Modified Eagle Medium (DMEM, Agilent Seahorse cat #103575-100) with the appropriate supplements as stated below.
Primary fibroblasts assayed were Propionic Acidemia (PA) (GM03590 Coriell Institute for Medical Research, Tsi 6337 Trans-Hit Bio), Methylmalonic Acidemia (MMA) (Tsi 5224 Trans-Hit Bio), Subnormal activation of pyruvate dehydrogenase complex (PDH) (GM01503 Coriell Institute for Medical Research), Very long-chain acyl-CoA dehydrogenase (VLCAD) (GM17475), Leigh Syndrome (LS) (GM03672, GM13411 Coriell Institute for Medical Research), Pyruvate Carboxylase Deficiency (PC) (GM00444 Coriell Institute for Medical Research). 10 μM of Compounds were added for 2 hours in PA, MMA lines and for 24h for the other fibroblast lines.
Assay was performed according to manufacturer instructions (NADP+/NADPH-Glo Assay Promega, G9082). Assay required a plate for total measurement of NADP+/NADPH and a plate for individual measurement of NADP+ or NADPH. For every assay a 12-point standard curve is prepared ranging from 400 nM to 0.625 nM. Media is removed and replaced with 50 μl of PBS for both assays.
For individual NADP+/NADPH measurements, 50 μl of 1% DTAB (Sigma, D5047) (cell lysis reagent) in 0.2N NaOH was added to the plates and 100 μl of lysate was split into two plates with 50 μl each from which ratio of NADP/NADPH can be calculated. 25 μl of 0.4N HCl were added to the NADP+ plates and both NADP+ and NADPH plates were heated at 60° C. for 15 minutes. The acid and heat treatment destroyed NADPH allowing individual NADP+ measurements while heating in basic conditions destroys NADP+ allowing individual NADPH measurement. After 15 minutes plates were allowed to come to room temperature and Trizma base (Sigma, T1699) was added to the NADP+ plates to neutralize the acid and HCl Trizma hydrochloride (Sigma, T2694) was added to the NADPH plates. The NADNADPH glo reagent was prepared by adding 125 μl of NAD cycling substrate, 125 μl of reductase, 125 μl of reductase substrate, 125 μl NAD cycling enzyme to a total of the 25 ml of NAD GLO reagent. 1:1 ratio of total volume of reagent was added to the individual NADP+, NADPH measurements (total 100 μl) and 50 μl were added for the total NAD/NADPH measurements. Luminescence was measured for 30-60 minutes within the linear range.
A total dead cell count was performed as described in Example 817 and only alive cells were used for analysis.

Assay [4] deals with primary fibroblasts (healthy controls and PA, MMA, BCKDK, PDH, VLCAD, LS, PC, GA, VLCFA, KSS, FXN, HD). Description: Measurement of ROS (H2DCFDA) in primary fibroblasts. Type of assay: cell-based, human. Particulars: Homo sapiens, procedure Example 812, Assay Condition C. In short, it runs like this:
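Patient and healthy-control primary fibroblasts switched to supplemented DMEM 24 h before assay, then treated with compound (10 μM) plus H2DCFDA (22 μM) for 2 h (PA, MMA lines) or 24 h (other lines). Kinetic fluorescence at 492/527 nm over 60 min; only live cells analysed.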

The test system of assay [5] is Peripheral blood mononuclear cells co-cultured with venular endothelial cells (Sag system). Description: BioMAP Sag system (T-cell ligands). Type of assay: cell-based, human. As to conditions: 10 uM; procedure of Example 828. As to the method:
The BioMAP platform (BioMAP® Diversity PLUS® Panel from Eurofins) is an in vitro phenotypic profiling technology that screened the compounds of the present disclosure (hereafter indicated as test agents) in human primary cell-based systems modelling complex tissue and disease states. The BioMAP assays were performed using the Eurofin's BioMAP Technology Platform as (see references 1 to 13 in the example 824 section) to model different diseases on primary cell-based model systems. These systems consisted of either single primary cell types or co-culture cells. Adherent cell types were cultured or co-cultured in 96 or 384-well plates until confluence followed by the addition of compounds prepared in DMSO at a final concentration of ≤0.1%. In each cell-based system, primary cells from heathy donors (2-6 donors) were pooled and treated with compounds at 1 and 10 μM dose 1h prior to stimulation and remain in culture as indicated in Example 825, Example 826, Example 827, Example 828, Example 829, Example 830, Example 831, Example 832, Example 833, Example 834, Example 835, Example 836 and Example 837. For on the BioMAP® Diversity PLUS® Panel, please see the following references, which are incorporate herein.
Following the general procedure as described in Example 824, Peripheral blood mononuclear cells were co-cultured with venular endothelial cells and treated with soluble antigen (T-cell ligands) (Sag system) in the presence or absence of compounds to model autoimmune and chronic inflammation. Biomarkers read out were; MCP-1, CD38, CD40, E-selectin, CD69, IL-8, MIG, PBMC cytotoxicity, Proliferation and SRB.

In assay [6] the test system is Bronchial epithelial cells co-cultured with dermal fibroblast (BF4T system). Description: BioMAP BF4T system (TNFα and IL-4). Type of assay: cell-based, human. As to conditions: Homo sapiens, 24 h; 10 uM; procedure of Example 830; read-out: % increase in VCAM-1.
The next assay concerns HepG2 cells. Description: Glucose uptake (Glucose Uptake-Glo). In kind it is cell-based. As to conditions: Homo sapiens, 50 uM, read-out: % increase in Glucose Uptake.
The subject of assay [7] is Venular Endothelial cells (HUVEC) (4H system). Description: BioMAP 4H system (IL-4 and histamine). Type of assay: cell-based, human. As to conditions: 10 uM; procedure of Example 826.
The test system of assay [8] is Dermal fibroblasts (HDF3CGF system). Description: BioMAP HDF3CGF system (IL-1β, TNFα, IFNγ, EGF, bFGF, PDGF-BB). Type of assay: cell-based, human. Particulars: Homo sapiens, Fibroblast, 72 h; 1 uM; read-out: % increase in 72 Hour Proliferation.
The test system of assay [9] is Peripheral blood mononuclear cells co-cultured with B-cells (BT system). Description: cells. As to conditions: Homo sapiens, 72 h, read-out: % decrease in sIL-17.
The subject of assay [10] is Peripheral blood mononuclear cells co-cultured with venular endothelial cells (HUVEC) (LPS system). Description: BioMAP LPS system. Particulars: procedure of Example 827. In kind it is cell-based, human.
Assay [11] deals with Coronary artery smooth muscle cells (CASM3C system). Description: BioMAP CASM3C system (IL-1β, TNFα, IFNγ). Type of assay: cell-based, human.
The subject of assay [12] is Bronchial epithelial cells (BE3C system). Description: BioMAP BE3C system (IL-1β, TNFα, IFNγ). In kind it is cell-based, human. As to conditions: Homo sapiens, Epithelial cell, 24 h; 10 uM; procedure of Example 831; read-out: % decrease in MMP-1.

Consider `CC(C)(CO)[C@@H](OC(=O)CN)C(=O)NCCC(=O)NCCSC(=O)CCC(=O)O` [Compound 1292, 4-[(2-[3-[(2R)-2-[(2-aminoacetyl)oxy]-4-hydroxy-3,3-dimethylbutanamido]propanamido]ethyl)sulfanyl]-4-oxobutanoic acid], for which the activation at 10 µM in assay [1] (assay condition D (1 mM glucose, 10% FBS), 10 μM, read-out: Increase in Spare Capacity AUC) is no less than 30%; in [3], no less than 10%. Also, the inhibition at 50 µM in [2] is no less than 10%. Moreover, the inhibition at 10 µM in assay [4] (Fibroblast, KSS GM06225, read-out: Decreased ROS by at least 30%) was no less than 30%; in [4] (Fibroblast, Leigh GM13411, read-out: Decreased ROS by at least 10%) it was no less than 10%; in assay [4] (FXN GM04078, read-out: Decreased ROS by at least 10%), no less than 10%; in [4] (FXN GM04078, read-out: Decreased ROS by at least 30%), no less than 30%.
Turning to `CCC(=O)OCC(C)(C)[C@@H](O)C(=O)NCCC(=O)NCCSC(=O)CCC(=O)O` [Compound 157, 4-[(2-[3-[(2R)-2-hydroxy-3,3-dimethyl-4-(propanoyloxy)butanamido]propanamido]ethyl)sulfanyl]-4-oxobutanoic acid], the activation at 50 µM is no less than 10% in assay [1] (assay condition C (10 mM glucose, 10% FBS), 50 μM, read-out: Increase in Maximal Respiratory Capacity AUC) and no less than 20% with HepG2 cells. Also, in [5], the “% increase in Proliferation” value is listed as no less than 10%. For the same compound, the activation at 10 µM in assay [6] was no less than 10%; in assay [10] (Homo sapiens, HUVEC, 24 h, 10 uM, read-out: % increase in sTNFα), no less than 10%. Moreover, the “% decrease in MCP-1” value in assay [7] is on record as no less than 10%. The activation at 1 µM in assay [8] was no less than 10%. Moreover, the inhibition at 1 µM in assay [9] was no less than 10%. For the same compound, in [10] (1 uM), the “% increase in Tissue Factor” value was no less than 10%. Besides, the inhibition at 10 µM in [10] (Homo sapiens, HUVEC, 24 h, 10 uM, read-out: % decrease in IL-1α) was no less than 10%; in [10] (Homo sapiens, HUVEC, 24 h, 10 uM, read-out: % decrease in TissueFactor), no less than 10%; in assay [12], no less than 10%. Besides, the “% decrease in Proliferation” value in assay [11] (1 uM, procedure of Example 832) was no less than 10%. Moreover, the “% decrease in HLA-DR” value in [11] (10 uM) is recorded as no less than 10%.
